How the values were obtained:
MT4 [1] = assay: Concentration required to reduce the viability of mock-infected MT-4 cells by 50%; type: functional; details: Homo sapiens
MT4 [2] = assay: Effective concentration against HIV-1 induced cytopathogenicity in MT-4 cells; type: functional, cell-based; details: Homo sapiens
MT4 [3] = assay: Selectivity index expressed as the ratio of CC50/ EC50; type: functional, Homo sapiens
[4] = target: Human immunodeficiency virus type 1 reverse transcriptase (Human immunodeficiency virus 1, UniProt Q72547, L100I); assay: Inhibitory activity against HIV rRT activity in HIV-1 mutant resistant to TIBO(L100I) strain
[5] = target: Human immunodeficiency virus type 1 reverse transcriptase (Human immunodeficiency virus 1, UniProt Q72547, Y181C); assay: Inhibitory activity against HIV rRT activity in mutant HIV-1 strain resistant to Nevirapine (Y181C)
[6] = target: Human immunodeficiency virus type 1 reverse transcriptase (Human immunodeficiency virus 1, UniProt Q72547); assay: Inhibitory activity against HIV rRT activity in wild type IIIB strain
[7] = target: Human immunodeficiency virus type 2 pol protein (Human immunodeficiency virus 2, UniProt P88142); assay: Inhibitory activity against HIV rRT activity in HIV-2
Chain of Human immunodeficiency virus type 2 pol protein (P88142 whole entry): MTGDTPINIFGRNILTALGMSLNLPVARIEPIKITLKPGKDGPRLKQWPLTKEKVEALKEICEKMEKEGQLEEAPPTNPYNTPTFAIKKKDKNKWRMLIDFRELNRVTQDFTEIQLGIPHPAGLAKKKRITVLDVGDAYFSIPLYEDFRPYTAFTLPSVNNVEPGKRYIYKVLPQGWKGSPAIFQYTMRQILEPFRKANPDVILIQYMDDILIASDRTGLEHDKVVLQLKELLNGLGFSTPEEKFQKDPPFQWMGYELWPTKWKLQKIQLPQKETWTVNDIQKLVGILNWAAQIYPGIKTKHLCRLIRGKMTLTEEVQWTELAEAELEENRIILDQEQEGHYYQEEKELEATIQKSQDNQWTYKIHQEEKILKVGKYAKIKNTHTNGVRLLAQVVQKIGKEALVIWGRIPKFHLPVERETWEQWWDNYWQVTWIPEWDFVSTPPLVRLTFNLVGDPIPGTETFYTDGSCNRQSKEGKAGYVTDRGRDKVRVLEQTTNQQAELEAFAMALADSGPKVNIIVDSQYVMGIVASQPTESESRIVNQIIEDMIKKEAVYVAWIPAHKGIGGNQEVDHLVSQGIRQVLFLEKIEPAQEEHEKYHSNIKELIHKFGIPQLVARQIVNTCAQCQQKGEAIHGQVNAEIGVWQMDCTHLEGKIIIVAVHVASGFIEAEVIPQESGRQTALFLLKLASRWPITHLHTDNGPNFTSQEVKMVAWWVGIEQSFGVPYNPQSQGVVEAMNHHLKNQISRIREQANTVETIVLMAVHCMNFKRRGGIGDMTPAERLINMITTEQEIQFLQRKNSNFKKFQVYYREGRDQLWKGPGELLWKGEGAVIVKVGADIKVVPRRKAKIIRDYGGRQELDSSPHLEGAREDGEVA

SMILES	CC50 (MT4 [1]) [µM]	EC50 (MT4 [2]) [µM]	Ratio (MT4 [3])	IC50 [4] [µM]	IC50 [5] [µM]	IC50 [6] [nM]	IC50 [7] [µM]
COC(=O)c1cccn1S(=O)(=O)c1ccccc1[N+](=O)[O-]	> 300	5	>60	–	–	–	–
CNc1ccccc1S(=O)(=O)n1cccc1	> 300	> 300	–	–	–	–	–
Nc1ccc(Cl)cc1S(=O)(=O)n1cccc1C(=O)OCc1ccccc1	> 300	150	>2	–	–	–	–
COC(=O)c1cccn1S(=O)(=O)c1ccc(Cl)cc1N	248	> 248	–	–	–	–	–
CCOC(=O)c1cccn1S(=O)(=O)c1cc(Cl)ccc1NC=O	> 300	1	>300	> 20	> 20	> 20000	> 20
CCOC(=O)c1cccn1S(=O)(=O)c1cc(Cl)c(Cl)cc1[N+](=O)[O-]	5	> 5	–	–	–	–	–
CCOC(=O)c1cccn1S(=O)(=O)c1cc(C)ccc1[N+](=O)[O-]	> 300	9.8	>30.6	> 20	> 20	5000	> 20
Cc1ccnc2c1NC(=O)c1cccnc1N2C1CC1 [NEVIRAPINE]	< 300	–	–	–	–	–	> 20
O=C(O)c1cccn1S(=O)(=O)c1ccccc1F	> 300	> 300	–	–	–	–	–
CC(C)OC(=O)c1cccn1S(=O)(=O)c1cc(Cl)ccc1N	> 300	0.14	>2140	14	8	270	> 20
COC(=O)c1cccn1S(=O)(=O)c1ccccc1N	> 300	22	>14	–	–	–	–
CCOC(=O)c1cc2ccccc2n1S(=O)(=O)c1cc(Cl)ccc1[N+](=O)[O-]	> 100	> 100	–	–	–	–	–
COC(=O)c1cccn1S(=O)(=O)c1cc(Cl)ccc1[N+](=O)[O-]	12	10	1.2	–	–	–	–
C=CCOC(=O)c1cccn1S(=O)(=O)c1cc(Cl)ccc1[N+](=O)[O-]	4.3	> 4.3	–	–	–	–	–
CCOC(=O)c1cccn1S(=O)(=O)c1cc(Cl)ccc1NC(=O)CC	> 300	1	>300	> 20	> 20	> 20000	> 20
Nc1ccccc1S(=O)(=O)n1ccc2ccccc21	58	11	5	–	–	–	–
O=C(O)c1cccn1S(=O)(=O)c1ccccc1Cl	> 300	247	–	–	–	–	–
O=C(NC1CCCCC1)c1cccn1S(=O)(=O)c1ccccc1F	300	> 300	–	–	–	–	–
CCOC(=O)c1cccn1S(=O)(=O)c1cc(Cl)ccc1NC	300	> 300	–	–	–	–	–
Nc1cc(Cl)ccc1S(=O)(=O)n1cccc1	75	> 75	–	–	–	–	–
COC(=O)c1cccn1S(=O)(=O)c1cc(N)ccc1Cl	150	75	2	–	–	–	–
O=[N+]([O-])c1ccc(Cl)c(S(=O)(=O)n2ccc3ccccc32)c1	3	> 3	–	–	–	–	–
CCOC(=O)CC(=O)Nc1ccc(Cl)cc1S(=O)(=O)n1cccc1C(=O)OCC	290	2.6	111	> 20	> 20	> 20000	> 20

SMILES	CC50 (MT4 [1]) [µM]	EC50 (MT4 [2]) [µM]	Ratio (MT4 [3])	IC50 [4] [µM]	IC50 [5] [µM]	IC50 [6] [nM]	IC50 [7] [µM]
CCOC(=O)c1cccn1S(=O)(=O)c1cc(Cl)ccc1NC(C)=O	> 300	1	>=300	> 20	> 20	> 20000	> 20
O=[N+]([O-])c1ccccc1S(=O)(=O)n1ccc2ccccc21	24	5	5	–	–	–	–
COC(=O)c1cccn1S(=O)(=O)c1cc(Cl)ccc1N	> 300	0.18	>1666	7.4	6.9	450	> 20
O=[N+]([O-])c1cc(Cl)ccc1S(=O)(=O)n1cccc1	15	> 15	–	–	–	–	–
CCCCNc1ccc(Cl)cc1S(=O)(=O)n1cccc1C(=O)OCC	> 300	> 300	–	–	–	–	–
CC(C)OC(=O)c1cccn1S(=O)(=O)c1cc(Cl)ccc1[N+](=O)[O-]	> 300	30	>10	–	–	–	–
O=C(NCc1ccccc1)c1cccn1S(=O)(=O)c1ccccc1F	> 300	40	7	–	–	–	–
CCOC(=O)c1cc2ccccc2n1S(=O)(=O)c1cc(Cl)ccc1N	50	1.8	28	–	–	–	–
Nc1ccc(Cl)cc1S(=O)(=O)n1cccc1	165	95	2	–	–	–	–
CCNc1ccc(Cl)cc1S(=O)(=O)n1cccc1C(=O)OCC	300	> 300	–	–	–	–	–
O=[N+]([O-])c1ccc(Cl)c(S(=O)(=O)n2cccc2)c1	2	> 2	–	–	–	–	–
CCOC(=O)c1cccn1S(=O)(=O)c1ccccc1N	> 300	10	>30	–	–	–	–
CCN(CC)CCOC(=O)c1cccn1S(=O)(=O)c1cc(Cl)ccc1[N+](=O)[O-]	30	> 30	–	–	–	–	–
CC(C)=CCN1Cc2cccc3nc(S)n(c23)C[C@H]1C	–	–	–	> 20	9	900	> 20
CCOC(=O)c1cccn1S(=O)(=O)c1ccccc1F	132	13	10	–	–	–	–
CCOC(=O)c1cccn1S(=O)(=O)c1ccc(Cl)cc1[N+](=O)[O-]	> 300	15	>20	–	–	–	–
O=[N+]([O-])c1ccccc1S(=O)(=O)n1cccc1	36	> 36	–	–	–	–	–
C=CCOC(=O)c1cccn1S(=O)(=O)c1cc(Cl)ccc1N	100	0.4	250	> 20	14	900	> 20
CCOC(=O)c1cccn1S(=O)(=O)c1cc(Cl)ccc1[N+](=O)[O-]	12	> 12	–	–	–	–	–
CCN(CC)CCOC(=O)c1cccn1S(=O)(=O)c1cc(Cl)ccc1N	162	12	13.5	–	–	–	–
Cc1cn([C@H]2C[C@H](N=[N+]=[N-])[C@@H](CO)O2)c(=O)[nH]c1=O [ZIDOVUDINE]	> 20	–	>2000	–	–	–	–
Nc1cc(Cl)ccc1S(=O)(=O)n1ccc2ccccc21	37	> 37	–	–	–	–	–
O=[N+]([O-])c1ccc(Cl)cc1S(=O)(=O)n1cccc1	2	> 2	–	–	–	–	–

SMILES	CC50 (MT4 [1]) [µM]	EC50 (MT4 [2]) [µM]	Ratio (MT4 [3])	IC50 [4] [µM]	IC50 [5] [µM]	IC50 [6] [nM]	IC50 [7] [µM]
O=[N+]([O-])c1ccc(Cl)cc1S(=O)(=O)n1ccc2ccccc21	2	> 2	–	–	–	–	–
CCOC(=O)c1cccn1S(=O)(=O)c1cc(N)ccc1Cl	72	> 72	–	–	–	–	–
CCCOC(=O)c1cccn1S(=O)(=O)c1cc(Cl)ccc1[N+](=O)[O-]	10	> 10	–	–	–	–	–
Nc1ccc(Cl)c(S(=O)(=O)n2ccc3ccccc32)c1	> 300	150	>2	–	–	–	–
CCOC(=O)c1cccn1S(=O)(=O)c1cc([N+](=O)[O-])ccc1Cl	6	> 6	–	–	–	–	–
CCOC(=O)c1cccn1S(=O)(=O)c1cc(C)ccc1N	> 300	1.7	>176	> 20	> 20	4000	> 20
CCOC(=O)c1cccn1S(=O)(=O)c1ccccc1Cl	141	27	5	–	–	–	–
Nc1ccc(Cl)cc1S(=O)(=O)n1ccc2ccccc21	1	1	–	–	–	–	–
CCOC(=O)c1cccn1S(=O)(=O)c1cc(Cl)ccc1N	> 300	0.14	>2140	8.5	7.5	400	> 20
O=CNNC(=O)c1cccn1S(=O)(=O)c1ccccc1F	300	> 300	–	–	–	–	–
CCOC(=O)c1cccn1S(=O)(=O)c1ccc(Cl)cc1N	238	> 238	–	–	–	–	–
COC(=O)c1cccn1S(=O)(=O)c1ccc(Cl)cc1[N+](=O)[O-]	> 300	> 300	–	–	–	–	–
COC(=O)c1cccn1S(=O)(=O)c1cc([N+](=O)[O-])ccc1Cl	12	> 12	–	–	–	–	–
O=C(NC1CC1)c1cccn1S(=O)(=O)c1ccccc1F	300	> 300	–	–	–	–	–
CCOC(=O)c1cccn1S(=O)(=O)c1cc(Cl)c(Cl)cc1N	> 300	12	>25	–	–	–	–
Nc1ccccc1S(=O)(=O)n1cccc1	228	> 228	–	–	–	–	–
CC(=O)c1cccn1S(=O)(=O)c1ccccc1[N+](=O)[O-]	100	2	50	–	–	–	–
Nc1ccc(Cl)c(S(=O)(=O)n2cccc2)c1	91	> 91	–	–	–	–	–
O=[N+]([O-])c1cc(Cl)ccc1S(=O)(=O)n1ccc2ccccc21	8	> 8	–	–	–	–	–
CCCOC(=O)c1cccn1S(=O)(=O)c1cc(Cl)ccc1N	110	0.22	500	10	5	400	> 20
CCOC(=O)c1cccn1S(=O)(=O)c1ccccc1[N+](=O)[O-]	> 300	15	>20	–	–	–	–
O=C(OCc1ccccc1)c1cccn1S(=O)(=O)c1cc(Cl)ccc1[N+](=O)[O-]	300	> 300	–	–	–	–	–
